In patent publication US20080275105A1, “Selective Muscle Relaxant and Pharmaceutical Compositions” (UNIVERSIDADE FEDERAL DO RIO DE JANEIROUFRJ, priority 2004, published 2008):

Tests used:
[1] = tested on: rat aorta rings with no endothelium; test: KCl-induced contracture in aorta rings without endothelium; assay type: cell-based; conditions: KCl 40 mM; for IC50: Rattus norvegicus, without endothelium, six experiments, read-out: CI50 (μM) Average ± SEM
Protocol: (§1) Once the experiments have been carried out, the findings were subject to statistical analyses being expressed in average ±SEM as a percentage of the control value, and graphs were drawn up using the Sigma Plot 5.0 program to represent the data obtained. For the statistical analysis of the effects on the different muscle tissues, the difference was assessed among the concentrations of the same derivative, using the “t” Student test. In order to ascertain the difference among the derivatives, the one-way ANOVA test was used. The differences were considered as significant for p<0.05. The Cl50 was expressed as an average ±SEM of the values obtained for each experiment through non-linear regression based on the y=yo+ae^−bx equation.
(§2) Male Wistar rats weighing between 240-280 grams were sacrificed through dislocation of the cervical column under anesthesia using ethyl ether. The aorta artery was removed and transferred to a Petri dish containing modified Tyrode's solution whose composition is described in Table 3 below, where the vessel was cleaned and the connective tissue was removed. According to the scheduled Experiment Protocol, the vascular endothelium was removed mechanically with the assistance of a polyethylene rod. The artery was divided into rings with a width of 2-3 mm. Two hooks were placed in the wall of the vessel in order to record the tension generated by the muscle in a transversal direction. To do so, one of the hooks was tied to a fixed point in the chamber and the other to a power transducer (FT 03) for recording the isometric tension. The tension generated by the muscle was transformed into a digitized electric signal (Digidata 1322A) and stored in a computer for subsequent analysis using the Axoscope 8.0 program (Axon Instruments, Inc). The chamber was filled with Krebs solution, oxygenated and kept at a temperature of 37° C.
After stabilizing the preparation, approximately 120 minutes, the Experiment Protocol began. Initially, in order to identify the presence or absence of the vascular endothelium, the preparation was exposed to phenylephrine (10 μM) and when the contracture in response to this substance was stabilized, acetylcholine (10 μM) was added to the nutrient solution. Relaxation of over 80% in response to the acetylcholine indicated the full integrity of the endothelium and relaxation of less than 10% indicated the absence of endothelium. The tissues in which the relaxation intensity fell between >10% and <80% were discarded. […] […] For the purpose of comparing the potency of some of the L294 analogs, the Cl50 was determined for each experiment using the y=yo+ae^−bx equation and their mean was used for the statistical analysis.

[2] = tested on: extensor digitorium longus (EDL) muscle; test: Electrically induced twitch amplitude in fast-fiber skeletal muscle (EDL); assay type: cell-based, mice
Protocol: (§3) Male mice weighing 22-28 g were sacrificed through cervical dislocation and the extensor digitorium longus (EDL) and soleus (SOL) muscles were dissected in a Ringer-Krebs solution, whose composition is given in Table 9, at room temperature. The muscles were placed in vertical chambers with a capacity of 10 ml, and were fixed by their ends to the stimulation electrode fixation rod and a power transducer (Grass FT03) for registering muscle twitches. The chamber solution was bubbled continuously with a carbogenic mixture (95% O2/5% CO2) and kept at a temperature of 37° C. The muscles were stimulated electrically through a stimulator (Grass S88) at a frequency of 0.2 Hz, at 37° C. After the stabilization of the muscle twitches (±30 minutes) a control record was taken in the absence of the drug, and subsequently rising concentrations (from 10 μM to 200 μM) of the L294 derivatives were added every ten minutes, diluted in DMSO. […] The signals recorded by the transducer were amplified (Cyberamp) and the isometric tension was digitized (Digidata 1322A) and stored on a computer. The screening and analysis of the experiment was handled through the use of the Axoscope 8.0 program. (Zapata-Sudo, 2003).
(§4) A measurement of the electrically-induced twitch amplitude was selected to assist the effects of the L294 analogs on the skeletal muscle inotropism. One muscle consisting of fast fibers (extensor digitorium longus-EDL) and the other of slow fibers (soleus-SOL) taken from mice were selected for this purpose. Differences in the timing of the twitches between the fast and slow muscles are shown at the faster recording speed. […] Washing the preparation with Krebs solution caused a partial reversion of the effects induced by the L786.

[3] = tested on: rat aorta rings with the vascular endothelium preserved; test: Phenylephrine-induced contracture in aorta rings with preserved endothelium; assay type: cell-based; conditions: phenylephrine 10 μM; for IC50: Rattus norvegicus, with endothelium, six experiments, read-out: CI50 (μM) Average ± SEM
Protocol: as §1, §2
After stabilizing the preparation, approximately 120 minutes, the Experiment Protocol began. Initially, in order to identify the presence or absence of the vascular endothelium, the preparation was exposed to phenylephrine (10 μM) and when the contracture in response to this substance was stabilized, acetylcholine (10 μM) was added to the nutrient solution. Relaxation of over 80% in response to the acetylcholine indicated the full integrity of the endothelium and relaxation of less than 10% indicated the absence of endothelium. The tissues in which the relaxation intensity fell between >10% and <80% were discarded. In order to investigate the vasodilator effect of the different L294 analogs, they were added to the experiment chambers in rising concentration after the contracture stabilization of the vessel induced by phenylephrine. The tension registered after treatment with each of the L294 analog concentrations was normalized as a function of the amplitude of the contracture triggered by phenylephrine. For the purpose of comparing the potency of some of the L294 analogs, the Cl50 was determined for each experiment using the y=yo+ae^−bx equation and their mean was used for the statistical analysis.

rat papillary muscle = test: Isometric tension (electrically stimulated twitches) in papillary muscle; assay type: cell-based; conditions: 10 to 100 μM; not significant
Protocol: as §1
After anesthesia with ethyl ether, male Wistar rats weighing between 240-280 grams were sacrificed through cervical dislocation. The heart was removed rapidly and the papillary muscle and the ventricular bundles were dissected in Tyrode's solution, whose composition is given in Table 2 below, at room temperature. The muscles were placed in vertical chambers with a capacity of 10 mL and fixed at their extremities: the lower portion to a hook located in the stimulation electrode fixation rod and the upper portion connected to a power transducer (Grass FT03) for recording the muscle twitches.
The muscles were stimulated electrically with supra-maximum voltage (50-60 V) through a stimulator (Grass S88) at a frequency of 1.0 Hz. The signals captured by the transducer were amplified (Cyberamp 380, Axon Instruments) and the isometric tension was digitized (Digidata 1322A, Axon Instruments) and stored on a computer. The screening and analysis of the experiment was handled through the Axoscope 8.0 program (Axon Instruments) (Sudo & cols., 2001). The chamber solution was bubbled continuously with a carbogenic mixture (95% O2/5% CO2) and kept at a temperature of 37° C.
After the stabilization of the muscle twitches (approximately 30 min) the records were carried out in the absence (control) and presence of rising concentrations (10 to 100 μM) of the different L294 analogs, diluted in DMSO. The records were carried out in pairs (two papillary and two ventricle) thus allowing the control experiments to be carried out in one of the pairs, meaning with rising quantities of DMSO equivalent to those used to dilute the substances. The reversibility of the effect of the substances was investigated at the end of each experiment, noting the recovery of the muscle twitches after bathing the preparation with Tyrode's solution.

soleus (SOL) muscle = test: Electrically induced twitch amplitude in slow-fiber skeletal muscle (SOL); assay type: cell-based, mice; conditions: for SOL twitch amplitude 30 min-Washing (% of the control): 30 min after washing
Protocol: as §3, §4

Row | Structure (SMILES) | reversal of the contracture caused by K+, without endothelium ([1]; highest concentration 200 μM, result in words) | IC50 [1] | EDL twitch amplitude 200 μM (% of the control) [2] | EDL twitch amplitude 30 min-Washing (% of the control) ([2]; 30 min after washing) | IC50 [3] | maximum alterations to the papillary muscle twitches (rat papillary muscle) | SOL twitch amplitude 200 μM (% of the control) (soleus (SOL) muscle) | SOL twitch amplitude 30 min-Washing (% of the control) (soleus (SOL) muscle) | effect on EDL muscle twitches ([2]; 50 μM, result in words) | maximum inhibition levels of phenylephrine contracture, with endothelium [3] | effect on SOL muscle twitches (soleus (SOL) muscle; 50 μM, result in words)
1 | CN(/N=C/c1cccs1)C(=O)c1ccc2c(c1)OCO2 [L785, 1,3-Benzodioxol-5-carboxylic acid, N-methyl-N′-[1-thiophene-2-yl-meth-(E)-ylidene]-hydrazide] | unable to completely reverse the contracture | 40.5 ± 9.5 µM | 31.6±4.7 % of the control | 36.4 ± 4.5 % of the control | 10.2 ± 0.5 µM | 86.5±4.0 % of the control | 28.4±6.6 % of the control | 37.9 ± 9.6 % of the control |  |  | 
2 | O=C(c1ccc2c(c1)OCO2)N(Cc1ccccc1)/N=C/c1cccs1 [L786, 1,3-Benzodioxol-5-carboxylic acid, N-benzyl-N′-[1-thiophene-2-yl-meth-(E)-ylidene]-hydrazide] |  | 151 ± 7.6 µM | 28.7±9.9 % of the control |  | 134 ± 31 µM |  | 61.9±5.5 % of the control | 77.0 ± 10.3 % of the control | reduction in the amplitude and an extension in the duration of the muscle twitches | 34.5±7.6% | reduction in the amplitude and an extension in the duration of the muscle twitches
